Results on seven compounds are retold here after US9714239B2, “N-phenyl-lactam derivatives capable of stimulating neurogenesis and their use in the treatment of neurological disorders” (Hoffmann-La Roche Inc., priority 2014, dated 2017).

Structures are written as SMILES.

For the assay, the system named is human embryonic stem cell derived neural stem cells (NSCs). In words: Neurogenesis assay: neural stem cell proliferation assay. To be noted: 96 h, compound concentration at which 150% activity of control (100%) is reached, increase in cells based on ATP levels (CellTiterGlo), 4 days incubation, dose response 8 μM to 8 nM. How it is done: Neural Stem Cell Proliferation Assay
Neurogenic properties of small molecules are determined based on the proliferation of human embryonic stem cell derived neural stem cells (NSCs) which were derived via a dual smad inhibition as previously described (Chambers, S. M., et al., Highly efficient neural conversion of human ES and iPS cells by dual inhibition of SMAD signaling, Nature biotechnology, 2009 27(3): p. 275-80.).
Compounds response is measured by the increase in cells based on ATP levels (Promega:CellTiterGlo®) after an incubation period of 4 days. NSCs are thawed and expanded over 3 passages. On the 14th day, NSCs are seeded in Polyornithin/Laminin coated 384 well plates at a cell density of 21,000 cells/cm^2 in a media volume of 38 μl.
4 hours after cell seeding, compound solutions are added at a volume of 2 μl. Stock solutions of the compounds (water, 5% DMSO) are diluted to obtain a dose response (11 points, dilution factor is 2), ranging from 8 μM to 8 nM. Controls are run to consistently determine the neurogenic properties of the cells:
Negative (neutral) control is cell culture Media (final DMSO concentration: 0.25%).
1. cell culture Media+100 ng/ml FGF2 (final DMSO concentration: 0.1%)
2. cell culture Media+20 ng/ml EGF (final DMSO concentration: 0.1%)
3. cell culture Media+100 ng/ml Wnt3a (final DMSO concentration: 0.1%)
After 4 days incubation at 37° C., 5% CO2, the amount of ATP per well is quantified. The ATP concentration is proportional to the cell number. ATP is quantified by using the Promega CellTiterGlo® kit. The CellTiterGlo® reagents contain a cell lysis buffer, a thermo stable luciferase (UltraGlo™ recombinant luciferase), magnesium and luciferin. Luciferin reacts with ATP producing oxyluciferin, AMP and light. The luminescence signal is proportional to the ATP content.
The value of negative (neutral) control is determined for each assay plate by taking the average of 16 negative control wells. The neurogenic compound response is calculated for each compound as (compound/Negative Control)*100. The values of EC150 from the dose response curve are determined for each test compound. The EC150 is the compound concentration at which 150% activity of control (100%) is reached.
(In ATP-based viability assays light output follows the ATP content of the culture.)
`COc1cc(N2CCN(Cc3ccccc3Cl)C2=O)ccc1-c1cnco1` [Example 69, 1-[(2-Chlorophenyl)methyl]-3-[3-methoxy-4-(1,3-oxazol-5-yl)phenyl]imidazolidin-2-one] returned an EC (150% of control) of 2.24 µM. On to `COc1cccc(C2CCN(c3ccc(-c4ccncc4)c(OC)c3)C2=O)c1` (stereo not shown) [Example 70, 3-(3-Methoxyphenyl)-1-(3-methoxy-4-pyridin-4-ylphenyl)pyrrolidin-2-one], for which the EC (150% of control) was 0.0613 µM. On to `COc1cccc(C2CCN(c3ccc(-c4ccncc4)cc3)C2=O)c1` (stereo not shown) [Example 71, 3-(3-Methoxyphenyl)-1-(4-pyridin-4-ylphenyl)pyrrolidin-2-one], for which the EC (150% of control) is 0.0155 µM. On to `O=C1N(Cc2cccc(F)c2)CCN1c1ccc(-c2cnco2)cc1` [Example 72, 1-[(3-Fluorophenyl)methyl]-3-[4-(1,3-oxazol-5-yl)phenyl]imidazolidin-2-one], for which the EC (150% of control) came to 1.07 µM. To `O=C1N(Cc2ccccc2F)CCN1c1ccc(-c2cnco2)cc1` [Example 73, 1-[(2-Fluorophenyl)methyl]-3-[4-(1,3-oxazol-5-yl)phenyl]imidazolidin-2-one] belongs 1.49 µM. For `COc1cc(N2CCN(Cc3ccccc3F)C2=O)ccc1-c1cnco1` [Example 74, 1-[(2-Fluorophenyl)methyl]-3-[3-methoxy-4-(1,3-oxazol-5-yl)phenyl]imidazolidin-2-one], the EC (150% of control) came to 2.7 µM. With `COc1cc(N2CCN(Cc3cccc(F)c3)C2=O)ccc1-c1cnco1` [Example 75, 1-[(3-Fluorophenyl)methyl]-3-[3-methoxy-4-(1,3-oxazol-5-yl)phenyl]imidazolidin-2-one], the EC (150% of control) was 0.597 µM.
